# According to patent US20110039721A1, “METHOD FOR PREDICTION ABOUT CARCINOGENICITY OF SUBSTANCE IN RODENT” (Chemicals Evaluation and Research Institute, priority 2007, published 2011):
# Test system: mRNA expressed from the genes (A) to (D) in rat liver
# Test: Behavior of genes (mRNA expression level, oligo-DNA microarray) in rat liver after 28-day oral administration
# Format: in vivo
# Procedure: A test solution was prepared by dissolving each of the carcinogens and the non-carcinogens shown in Tables 2 to 6 in the corresponding solvent shown in Tables 2 to 6. Each of the thus prepared test solutions and the solvents used for the preparation was administered by oral gavage to rats in each group. As the rats, male rats (F344 SPF rats) at 5 weeks of age obtained from Charles River Laboratories Japan, Inc. were used. The animals were divided into groups, each containing four individuals. The volume of the solvent administered to the vehicle control group was set to the same volume as that of the test solution administered to the carcinogen administration group or the non-carcinogen administration group. The administration of the test solution or the solvent was performed once daily for 28 days. Apiece was excised from the liver of each of the rats after a lapse of 28 days from the initiation of the administration, and the total RNA was extracted and purified.
# The expression level of mRNA was compared between each of the chemical substance administration groups and the corresponding vehicle control group, and genes that satisfy the requirements described in (A) to (D) were selected, respectively.
# The case where the expression level of mRNA in the carcinogen administration group or the non-carcinogen administration group is 1.5 times or more or 1/1.5 or less of the expression level of the corresponding mRNA expressed in the control group was determined to be significant. In this connection, the determination as to whether or not the change is significant was performed by taking into consideration the direction of increase or decrease in the expression level. In the case where the direction of increase or decrease is different as compared with the case where another carcinogen was administered, the change was determined to be not significant.
# [1] = gene group (A), Unigene No. Rn.167075
# [2] = gene group (C), Unigene No. Rn.120914
# [3] = (C), Unigene Rn.120914, defined direction +, rat liver, oral once daily 28 days
smiles,measurement,setting,value
"O=C1O[C@H]([C@@H](O)CO)C(O)=C1O [TS010, L-Ascorbic acid]","Behavior of gene caused by administration of chemical substance, Gene No. 4846","gene group (A), Unigene No. Rn.144554",−
same,"Behavior of gene caused by administration of chemical substance, Gene No. 2026",[1],−
same,"Behavior of gene caused by administration of chemical substance, Gene No. 4218",[1],−
same,"Behavior of gene caused by administration of chemical substance, Gene No. 6182","gene group (A), Unigene No. Rn.5834",−
same,"Behavior of gene caused by administration of chemical substance, Gene No. 5600","gene group (A), Unigene No. Rn.9836",−
same,"Behavior of gene caused by administration of chemical substance, Gene No. 1494","gene group (B), Unigene No. Rn.1430",−
same,"Behavior of gene caused by administration of chemical substance, Gene No. 2045","gene group (B), Unigene No. Rn.19329",−
same,"Behavior of gene caused by administration of chemical substance, Gene No. 2203","gene group (B), Unigene No. Rn.21240",−
same,"Behavior of gene caused by administration of chemical substance, Gene No. 533","gene group (C), Unigene No. Rn.106184",−
same,"Behavior of gene caused by administration of chemical substance, Gene No. 725","gene group (C), Unigene No. Rn.108075",−
same,"Behavior of gene caused by administration of chemical substance, Gene No. 1163","gene group (C), Unigene No. Rn.11766",−
same,"Behavior of gene caused by administration of chemical substance, Gene No. 4973","gene group (C), Unigene No. Rn.118529",−
same,"Behavior of gene caused by administration of chemical substance, Gene No. 4095","gene group (C), Unigene No. Rn.119024",−
same,"Behavior of gene caused by administration of chemical substance, Gene No. 1334",[2],−
same,"Behavior of gene caused by administration of chemical substance, Gene No. 6620",[2],−
same,"Behavior of gene caused by administration of chemical substance, Gene No. 6303","gene group (C), Unigene No. Rn.123063",−
same,"Behavior of gene caused by administration of chemical substance, Gene No. 5878","gene group (C), Unigene No. Rn.143213",−
same,"Behavior of gene caused by administration of chemical substance, Gene No. 1131","gene group (C), Unigene No. Rn.144946",+
same,"Behavior of gene caused by administration of chemical substance, Gene No. 1562","gene group (C), Unigene No. Rn.14744",−
same,"Behavior of gene caused by administration of chemical substance, Gene No. 1741","gene group (C), Unigene No. Rn.1647",−
same,"Behavior of gene caused by administration of chemical substance, Gene No. 893","gene group (C), Unigene No. Rn.164817",−
same,"Behavior of gene caused by administration of chemical substance, Gene No. 6026","gene group (C), Unigene No. Rn.167685",−
same,"Behavior of gene caused by administration of chemical substance, Gene No. 154","gene group (C), Unigene No. Rn.185941",−
same,"Behavior of gene caused by administration of chemical substance, Gene No. 1993","gene group (C), Unigene No. Rn.18728",−
same,"Behavior of gene caused by administration of chemical substance, Gene No. 813","gene group (C), Unigene No. Rn.201760",−
same,"Behavior of gene caused by administration of chemical substance, Gene No. 2494","gene group (C), Unigene No. Rn.23969",−
same,"Behavior of gene caused by administration of chemical substance, Gene No. 2546","gene group (C), Unigene No. Rn.24561",−
same,"Behavior of gene caused by administration of chemical substance, Gene No. 3776","gene group (C), Unigene No. Rn.43232",−
same,"Behavior of gene caused by administration of chemical substance, Gene No. 3929","gene group (C), Unigene No. Rn.4620",−
same,"Behavior of gene caused by administration of chemical substance, Gene No. 1119","gene group (C), Unigene No. Rn.9757",−
same,"Behavior of gene caused by administration of chemical substance, Gene No. 6742","gene group (C), Unigene No. Rn.9779",−
same,"Behavior of gene caused by administration of chemical substance, Gene No. 5634","gene group (C), Unigene No. Rn.9862",−
same,"Behavior of gene caused by administration of chemical substance, Gene No. 5726","gene group (D), Unigene No. Rn.9939",−
"CC(C)[N+](=O)[O-] [TS013, 2-Nitropropane]","Behavior of gene caused by administration of chemical substance, Gene No. 4846","(A), Unigene Rn.144554, defined direction +, rat liver, oral once daily 28 days",+
same,"Behavior of gene caused by administration of chemical substance, Gene No. 4218","(A), Unigene Rn.167075, defined direction +, rat liver, oral once daily 28 days, significant = 1.5 times or more or 1/1.5 or less of control",+
same,"Behavior of gene caused by administration of chemical substance, Gene No. 2026","(A), Unigene Rn.167075, defined direction −, rat liver, oral once daily 28 days",+
same,"Behavior of gene caused by administration of chemical substance, Gene No. 6182","(A), Unigene Rn.5834, defined direction +, rat liver, oral once daily 28 days",+
same,"Behavior of gene caused by administration of chemical substance, Gene No. 5600","(A), Unigene Rn.9836, defined direction +, rat liver, oral once daily 28 days",+
same,"Behavior of gene caused by administration of chemical substance, Gene No. 1494","(B), Unigene Rn.1430, defined direction −, rat liver, oral once daily 28 days",+
same,"Behavior of gene caused by administration of chemical substance, Gene No. 2045","(B), Unigene Rn.19329, defined direction +, rat liver, oral once daily 28 days",−
same,"Behavior of gene caused by administration of chemical substance, Gene No. 2203","(B), Unigene Rn.21240, defined direction +, rat liver, oral once daily 28 days",−
same,"Behavior of gene caused by administration of chemical substance, Gene No. 533","(C), Unigene Rn.106184, defined direction +, rat liver, oral once daily 28 days",+
same,"Behavior of gene caused by administration of chemical substance, Gene No. 725","(C), Unigene Rn.108075, defined direction −, rat liver, oral once daily 28 days",+
same,"Behavior of gene caused by administration of chemical substance, Gene No. 1163","(C), Unigene Rn.11766, defined direction +, rat liver, oral once daily 28 days",−
same,"Behavior of gene caused by administration of chemical substance, Gene No. 4973","(C), Unigene Rn.118529, defined direction −, rat liver, oral once daily 28 days",+
same,"Behavior of gene caused by administration of chemical substance, Gene No. 4095","(C), Unigene Rn.119024, defined direction −, rat liver, oral once daily 28 days",−
same,"Behavior of gene caused by administration of chemical substance, Gene No. 1334",[3],−
same,"Behavior of gene caused by administration of chemical substance, Gene No. 6620",[3],−
same,"Behavior of gene caused by administration of chemical substance, Gene No. 6303","(C), Unigene Rn.123063, defined direction −, rat liver, oral once daily 28 days",+
same,"Behavior of gene caused by administration of chemical substance, Gene No. 5878","(C), Unigene Rn.143213, defined direction −, rat liver, oral once daily 28 days",−
same,"Behavior of gene caused by administration of chemical substance, Gene No. 1131","(C), Unigene Rn.144946, defined direction −, rat liver, oral once daily 28 days",−
same,"Behavior of gene caused by administration of chemical substance, Gene No. 1562","(C), Unigene Rn.14744, defined direction −, rat liver, oral once daily 28 days",+
same,"Behavior of gene caused by administration of chemical substance, Gene No. 1741","(C), Unigene Rn.1647, defined direction −, rat liver, oral once daily 28 days",−
same,"Behavior of gene caused by administration of chemical substance, Gene No. 893","(C), Unigene Rn.164817, defined direction +, rat liver, oral once daily 28 days",−
same,"Behavior of gene caused by administration of chemical substance, Gene No. 6026","(C), Unigene Rn.167685, defined direction −, rat liver, oral once daily 28 days",−
same,"Behavior of gene caused by administration of chemical substance, Gene No. 154","(C), Unigene Rn.185941, defined direction −, rat liver, oral once daily 28 days",+
same,"Behavior of gene caused by administration of chemical substance, Gene No. 1993","(C), Unigene Rn.18728, defined direction −, rat liver, oral once daily 28 days",+
same,"Behavior of gene caused by administration of chemical substance, Gene No. 813","(C), Unigene Rn.201760, defined direction +, rat liver, oral once daily 28 days",−
same,"Behavior of gene caused by administration of chemical substance, Gene No. 2494","(C), Unigene Rn.23969, defined direction +, rat liver, oral once daily 28 days",−
same,"Behavior of gene caused by administration of chemical substance, Gene No. 2546","(C), Unigene Rn.24561, defined direction −, rat liver, oral once daily 28 days",−
same,"Behavior of gene caused by administration of chemical substance, Gene No. 3776","(C), Unigene Rn.43232, defined direction −, rat liver, oral once daily 28 days",−
same,"Behavior of gene caused by administration of chemical substance, Gene No. 3929","(C), Unigene Rn.4620, defined direction +, rat liver, oral once daily 28 days",−
same,"Behavior of gene caused by administration of chemical substance, Gene No. 1119","(C), Unigene Rn.9757, defined direction +, rat liver, oral once daily 28 days",−
same,"Behavior of gene caused by administration of chemical substance, Gene No. 6742","(C), Unigene Rn.9779, defined direction +, rat liver, oral once daily 28 days",−
same,"Behavior of gene caused by administration of chemical substance, Gene No. 5634","(C), Unigene Rn.9862, defined direction −, rat liver, oral once daily 28 days",−
same,"Behavior of gene caused by administration of chemical substance, Gene No. 5726","(D), Unigene Rn.9939, defined direction −, rat liver, oral once daily 28 days",−
